Values quoted from earlier work as cited in patent US20230089090A1, “Composition for Treating Viral Infections” (priority 2020, published 2023).

Tests used:
[1] = both flavonols administered simultaneously
[2] = significant amount excreted over a 24-h period
[3] = tested on: androgen receptor (AR)-positive C4-2 cells; conditions: single compounds, read-out: half minimal inhibitory concentration (IC50)
human furin = human furin (Homo sapiens, UniProt P09958)
[4] = in vivo, 10 mg/kg
[5] = tested on: HIV-1 infected lymphocytes; conditions: similar to DRB and cell control

Sequence of human furin (P09958 108-794): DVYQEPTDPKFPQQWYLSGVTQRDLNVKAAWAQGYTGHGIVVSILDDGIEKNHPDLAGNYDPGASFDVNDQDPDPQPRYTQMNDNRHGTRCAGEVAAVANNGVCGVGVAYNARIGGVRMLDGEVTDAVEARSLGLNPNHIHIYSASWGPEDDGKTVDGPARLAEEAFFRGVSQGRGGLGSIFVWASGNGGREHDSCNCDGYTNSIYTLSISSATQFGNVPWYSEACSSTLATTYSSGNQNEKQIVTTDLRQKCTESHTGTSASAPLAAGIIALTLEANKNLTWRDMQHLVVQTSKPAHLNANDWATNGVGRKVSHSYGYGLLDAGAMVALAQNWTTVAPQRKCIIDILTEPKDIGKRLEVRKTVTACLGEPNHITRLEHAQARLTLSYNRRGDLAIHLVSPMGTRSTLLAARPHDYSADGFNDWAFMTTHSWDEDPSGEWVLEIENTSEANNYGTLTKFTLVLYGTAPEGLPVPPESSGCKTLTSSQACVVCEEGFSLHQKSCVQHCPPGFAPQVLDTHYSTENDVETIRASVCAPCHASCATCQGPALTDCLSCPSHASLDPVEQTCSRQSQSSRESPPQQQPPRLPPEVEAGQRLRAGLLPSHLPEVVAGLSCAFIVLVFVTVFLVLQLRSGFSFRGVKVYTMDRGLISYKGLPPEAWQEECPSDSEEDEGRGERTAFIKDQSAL

SMILES: O=c1c(O)c(-c2ccc(O)cc2)oc2cc(O)cc(O)c12 [kaempferol, 3,4′,5,7-tetrahydroxyflavone]
- effect on efflux of quercetin [1]: blocked the efflux of quercetin

SMILES: O=c1c(O)c(-c2ccc(O)c(O)c2)oc2cc(O)cc(O)c12 [quercetin, 2-(3,4-dihydroxyphenyl)-3,5,7-trihydroxy-4H-chromen-4-one]
- clearance and half-life in the blood [2]: rapid clearance and a short half-life

SMILES: O=c1cc(-c2ccc(O)c(O)c2)oc2cc(O)cc(O)c12 [luteolin, 2-(3,4-dihydroxyphenyl)-5,7-dihydroxy-4-chromenone]
- IC50 [3]: 114 µM
- manner of inhibition of the enzyme activity (human furin): uncompetitive
- Ki (human furin; uncompetitive inhibition): 58.6 µM
- adverse effects [4]: Major adverse effects had not been observed
- cell aggregation/syncytia [5]: inhibition in cell aggregation/syncytia
- dengue virus replication (dengue virus; through inhibition of the proprotein convertase furin): restricts dengue virus replication
- prM cleavage in virus particles (dengue virus; virus particles from luteolin-treated cells): not cleaved efficiently
